Measured values: patent US8785467B2, “Alkoxy pyrimidine PDE10 inhibitors” (Merck Sharp & Dohme Corp., priority 2010, dated 2014)

Target: human PDE10A2 (Homo sapiens (Human), UniProt Q9Y233)
Assay: PDE10 fluorescence polarization (IMAP FP) inhibition assay
Assay type: biochemical
Settings: human PDE10A2 from transfected AD293 cell lysate, FAM-labeled cAMP 50 nM, room temperature; read-out: PDE10A Ki
Experimental: The activity of the compounds in accordance with the present invention as PDE10 inhibitors may be readily determined without undue experimentation using a fluorescence polarization (FP) methodology that is well known in the art (Huang, W., et al., J. Biomol Screen, 2002, 7: 215).
In a typical experiment the PDE10 inhibitory activity of the compounds of the present invention was determined in accordance with the following experimental method. PDE10A2 was amplified from human fetal brain cDNA (Clontech, Mountain View, Calif.) using a forward primer corresponding to nucleotides 56-77 of human PDE10A2 (Accession No. AF127480, Genbank Identifier 4894716), containing a Kozak consensus sequence, and a reverse primer corresponding to nucleotides 2406-2413 of human PDE10A2 (Accession No. AF 127480, Genbank Identifier 4894716). Amplification with Easy-A polymerase (Stratagene, La Jolla, Calif.) was 95° C. for 2 minutes followed by thirty three cycles of 95° C. for 40 seconds, 55° C. for 30 seconds, and 72° C. for 2 minutes 48 seconds. Final extension was 72° C. for 7 minutes. The PCR product was TA cloned into pcDNA3.2-TOPO (Invitrogen, Carlsbad, Calif.) according to standard protocol. AD293 cells with 70-80% confluency were transiently transfected with human PDE10A2/pcDNA3.2-TOPO using Lipofectamine 2000 according to manufacturer specifications (Invitrogen, Carlsbad, Calif.). Cells were harvested 48 hours post-transfection and lysed by sonication (setting 3, 10×5 sec pulses) in a buffer containing 20 mM HEPES, 1 mM EDTA and protease inhibitor cocktail (Roche). Lysate was collected by centrifugation at 75,000×g for 20 minutes. Supernatant containing the cytoplasmic fraction was used for evaluation of PDE10A2 activity. The fluorescence polarization assay for cyclic nucleotide phosphodiesterases was performed using an IMAP® FP kit supplied by Molecular Devices, Sunnyvale, Calif. (product #R8139). IMAP® technology has been applied previously to phosphodiesterase assays (Huang, W., et al., J. Biomol Screen, 2002, 7: 215). Assays were performed at room temperature in 384-well microtiter plates with an incubation volume of 20.2 μL. Solutions of test compounds were prepared in DMSO and serially diluted with DMSO to yield 8 μL of each of 10 solutions differing by 3-fold in concentration, at 32 serial dilutions per plate. 100% inhibition is determined using a known PDE10 inhibitor, which can be any compound that is present at 5,000 times its Ki value in the assay described as follows, such as papaverine (see Siuciak, et al. Neuropharmacology (2006) 51:386-396; Becker, et al. Behav Brain Res (2008) 186(2):155-60; Threlfell, et al., J Pharmacol Exp Ther (2009) 328(3):785-795), 2-{4-[pyridin-4-yl-1-(2,2,2-trifluoroethyl)-1H-pyrazol-3-yl]phenoxymethyl}quinoline succinic acid or 2-[4-(1-methyl-4-pyridin-4-yl-1H-pyrazol-3-yl)-phenoxymethyl]quinoline succinic acid (see Schmidt, et al. J Pharmacol Exp Ther (2008) 325:681-690; Threlfell, et al., J Pharmacol Exp Ther (2009) 328(3): 785-795). 0% of inhibition is determined by using DMSO (1% final concentrations).
A Labcyte Echo 555 (Labcyte, Sunnyvale, Calif.) is used to dispense 200 nL from each well of the titration plate to the 384 well assay plate. A solution of enzyme ( 1/1600 dilution from aliquots; sufficient to produce 20% substrate conversion) and a separate solution of FAM-labeled cAMP PDE from Molecular Devices (product #R7506), at a final concentration of 50 nM are made in the assay buffer (10 mM Tris HCl, pH 7.2, 10 mM MgCl2, 0.05% NaN3 0.01% Tween-20, and 1 mM DTT). The enzyme and the substrate are then added to the assay plates in two consecutive additions of 10 μL, and then shaken to mix. The reaction is allowed to proceed at room temperature for 30 minutes. A binding solution is then made from the kit components, comprised of 80% Solution A, 20% Solution B and binding reagent at a volume of 1/600 the total binding solution. […]

Sequence of human PDE10A2 (Q9Y233 267-1055): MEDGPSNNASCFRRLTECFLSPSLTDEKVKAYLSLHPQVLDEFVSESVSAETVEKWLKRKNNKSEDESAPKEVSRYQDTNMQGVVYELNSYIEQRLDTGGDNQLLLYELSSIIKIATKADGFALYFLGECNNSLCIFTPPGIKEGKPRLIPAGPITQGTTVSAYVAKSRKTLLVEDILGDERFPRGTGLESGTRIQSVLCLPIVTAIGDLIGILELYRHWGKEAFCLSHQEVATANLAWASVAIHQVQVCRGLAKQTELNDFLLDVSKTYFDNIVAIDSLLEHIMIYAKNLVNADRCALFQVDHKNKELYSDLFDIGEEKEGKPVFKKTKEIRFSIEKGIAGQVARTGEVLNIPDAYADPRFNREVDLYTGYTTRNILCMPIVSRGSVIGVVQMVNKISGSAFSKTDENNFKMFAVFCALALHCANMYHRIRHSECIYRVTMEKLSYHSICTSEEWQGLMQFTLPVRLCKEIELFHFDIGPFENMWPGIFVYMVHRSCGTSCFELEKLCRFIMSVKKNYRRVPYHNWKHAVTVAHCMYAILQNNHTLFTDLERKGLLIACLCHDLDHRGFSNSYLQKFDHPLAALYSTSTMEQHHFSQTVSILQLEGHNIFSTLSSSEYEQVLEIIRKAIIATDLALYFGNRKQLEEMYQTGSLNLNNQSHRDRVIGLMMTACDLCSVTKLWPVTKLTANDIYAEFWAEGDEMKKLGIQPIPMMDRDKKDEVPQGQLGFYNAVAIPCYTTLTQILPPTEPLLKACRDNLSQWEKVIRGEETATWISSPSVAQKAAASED

Cc1nc(C)c(CNc2nc(OCCc3ccccn3)nc(C#N)c2C)s1 [Compound 1-42, 6-((2,4-dimethylthiazol-5-yl)methylamino)-5-methyl-2-(2-(pyridin-2-yl)ethoxy)pyrimidine-4-carbonitrile]
Ki: 100 nM

Cc1c(Cl)nc(OCCCc2ccc3ncccc3n2)nc1NCc1cnn(C)c1 [Compound 1-21, 6-chloro-5-methyl-N-[(1-methyl-1H-pyrazol-4-yl)methyl]-2-[3-(1,5-naphthyridin-2-yl)propoxy]pyrimidin-4-amine]
Ki: 2.1 nM

Cc1c(Cl)nc(OC[C@@H]2C[C@H]2c2ccccn2)nc1NCc1cnn(C)c1 (stereo in doubt) [Compound 1-39, 6-chloro-5-methyl-N-[(1-methyl-1H-pyrazol-4-yl)methyl]-2-{[2-(pyridin-2-yl)cyclopropyl]methoxy}pyrimidin-4-amine]
Ki: 0.44 nM

COc1ccc([C@H]2C[C@@H]2COc2nc(Cl)c(C)c(NCc3cnn(C)n3)n2)nc1 [Compound 1-50]
Ki: 0.77 nM

Cc1nc(C)c(CNc2nc(OCCCc3ccc4ccccc4n3)nc(Cl)c2C)s1 [Compound 1-29, 6-chloro-N-[(2,4-dimethyl-1,3-thiazol-5-yl)methyl]-5-methyl-2-(3-quinolin-2-ylpropoxy)pyrimidin-4-amine]
Ki: 0.008 nM

Cc1nc(C)c(CNc2nc(OCCCc3nc4ccccc4[nH]3)nc(Cl)c2C)s1 [Compound 1-27, 2-[3-(1H-benzimidazol-2-yl)propoxy]-6-chloro-N-[(2,4-dimethyl-1,3-thiazol-5-yl)methyl]-5-methylpyrimidin-4-amine]
Ki: 0.023 nM

Cn1cc(CNc2cc(C#N)nc(OC[C@H]3C[C@@H]3c3ccccn3)n2)cn1 (stereo in doubt) [Compound 1-41, 6-((1-methyl-1H-pyrazol-4-yl)methylamino)-2-((2-(pyridin-2-yl)cyclopropyl)methoxy)pyrimidin-4-carbonitrile]
Ki: 35 nM

Cc1nc(C)c(CNc2nc(OC[C@H]3C[C@@H]3c3ccccn3)nc(-c3ncco3)c2C)s1 (stereo in doubt) [Compound 1-46, N-((2,4-dimethylthiazol-5-yl)methyl)-5-methyl-6-(oxazol-2-yl)-2-((2-(pyridin-2-yl)cyclopropyl)methoxy)-pyrimidin-4-amine]
Ki: 6.4 nM

Cc1nc(C)c(CNc2nc(OC[C@H]3C[C@@H]3c3ccc4ncccc4n3)ncc2C)s1 [Compound 1-45, 2-(((1S,2S)-2-(1,5-naphthyridin-2-yl)cyclopropyl)methoxy)-N-((2,4-dimethylthiazol-5-yl)methyl)-5-methylpyrimidin-4-amine]
Ki: 0.058 nM

Cc1c(NCc2cnn(C)c2)nc(OC[C@H]2C[C@@H]2c2ccccn2)nc1N(C)C (stereo in doubt) [Compound 1-44, N4,N4,5-trimethyl-N6-((1-methyl-1H-pyrazol-4-yl)methyl)-2-((2-(pyridin-2-yl)cyclopropyl)methoxy)pyrimidine-4,6-diamine]
Ki: 53 nM

Cc1c(Cl)nc(OC[C@H]2C[C@@H]2c2ccc3ncccc3n2)nc1NCc1nc(C)n(C)n1 [Compound 1-47, 2-(((1S,2S)-2-(1,5-naphthyridin-2-yl)cyclopropyl)methoxy)-6-chloro-N-((1,5-dimethyl-1H-1,2,4-triazol-3-yl)methyl)-5-methylpyrimidin-4-amine]
Ki: 8.1 nM

Cc1nc(CNc2nc(OC[C@H]3C[C@@H]3c3ccc4ncccc4n3)nc(Cl)c2C)n(C)n1 [Compound 1-49, 2-(((1S,2S)-2-(1,5-naphthyridin-2-yl)cyclopropyl)methoxy)-6-chloro-N-((1,3-dimethyl-1H-1,2,4-triazol-5-yl)methyl)-5-methylpyrimidin-4-amine]
Ki: 2.2 nM

Cc1nc(C)c(CNc2nc(OC[C@H]3C[C@@H]3c3ccc4ncccc4n3)nc(Cl)c2C)o1 [Compound 1-48, 2-(((1S,2S)-2-(1,5-naphthyridin-2-yl)cyclopropyl)methoxy)-6-chloro-N-((2,4-dimethyloxazol-5-yl)methyl)-5-methylpyrimidin-4-amine]
Ki: 0.49 nM

CSc1nc(OC[C@H]2C[C@@H]2c2ccccn2)nc(NCc2cnn(C)c2)c1C (stereo in doubt) [Compound 1-43, 5-methyl-N-((1-methyl-1H-pyrazol-4-yl)methyl)-6-(methylthio)-2-((2-(pyridin-2-yl)cyclopropyl)methoxy)-pyrimidin-4-amine]
Ki: 0.17 nM

Cc1cc(CNc2nc(OC[C@H]3C[C@@H]3c3ccc4ncccc4n3)nc(Cl)c2C)n(C)n1 [Compound 1-51, 2-(((1S,2S)-2-(1,5-naphthyridin-2-yl)cyclopropyl)methoxy)-6-chloro-N-((1,3-dimethyl-1H-pyrazol-5-yl)methyl)-5-methylpyrimidin-4-amine]
Ki: 0.0032 nM

Cc1nc(C)c(CNc2nc(OCCOc3ccc4cccnc4n3)nc(Cl)c2C)s1 [Compound 1-32, 6-chloro-N-[(2,4-dimethyl-1,3-thiazol-5-yl)methyl]-5-methyl-2-[2-(1,8-naphthyridin-2-yloxy)ethoxy]pyrimidin-4-amine]
Ki: 0.04 nM

Cc1nc(C)c(CNc2nc(OC[C@H]3C[C@@H]3c3ccccn3)nc(Cl)c2C)s1 (stereo in doubt) [Compound 1-20, 6-chloro-N-[(2,4-dimethyl-1,3-thiazol-5-yl)methyl]-5-methyl-2-{[2-pyridin-2-ylcyclopropyl]methoxy}pyrimidin-4-amine]
Ki: 0.019 nM
